Structures are written as SMILES.

One data set is described as follows: method code SF, from Hansch, C. & Leo, A. (1987). Log P database [Dataset]. Pomona College Medicinal Chemistry Project.
Conditions: not given
With `CC(=S)Oc1ccccc1`, the logP (as a rule, the decadic logarithm of the partition coefficient of the neutral form, usually between octanol and water) is 1.91. Same read-out and setting: the value for `CN(C)/N=N/c1cccc([N+](=O)[O-])c1` was 2.75; that for `CCCOc1cccc(C=C(C(C)=O)C(=O)OCC)c1` was 3.34.

Regarding `CC(=O)OC1CCCC(NC(=O)N(CCF)N=O)C1` (configuration not stated), the logP is 1.33. As to `COc1cc(C=NOC(=O)COc2ccccc2)ccc1OCCO`, the log partition coefficient (logP) was found to be 2.1.

Turning to `O=S1(=O)NC(C(Cl)Cl)=Nc2cc(Cl)ccc21`, the lipophilicity (logP) came out at 1.81. `CCC(O)CC` gave a log partition coefficient (logP) of 1.21. For the molecule `N#C/N=N/c1ccccc1`, the logP worked out at 2.3.

`Nc1cccc(OC(=O)CNC(=O)c2ccccc2)c1` had a lipophilicity (logP) of 1.3. Still for that read-out and setting: the value for `CNC(=O)Oc1cc(C)c(C)cc1C` was 2.52; that for `O=C(Nc1ccccc1)c1cc(N2CC2)c([N+](=O)[O-])cc1[N+](=O)[O-]` was 2.23.

For the molecule `Ic1cn[nH]c1`, the logP is 1.7.

`CN(C)S(=O)(=O)c1ccccc1` gave a log partition coefficient (logP) of 1.35.

`CCOC(=O)CON=Cc1ccc(OCC(=O)OCC)c(OC)c1` came in with a logP of 1.87.

On to `CCOC(=O)C(=Cc1cccc(F)c1)C(=O)OCC`, for which the lipophilicity (logP) worked out at 3.19. For `O=C(NCc1ccccc1)c1ccco1`, the logP is 1.81. The molecule `CCCCO[N+](=O)[O-]` showed a lipophilicity (logP) of 2.15.

`Cn1ccc(=O)[nH]c1=O`: the logP is -1.2.

In turn, `CN(Cc1ccccc1)/N=N/c1ccc(C#N)cc1` registered a logP of 3.82. Still for that read-out and setting: the value for `Cc1cccc([N+]([O-])=NC#N)c1` was 2.49. `CCCCCC1(CC)C(=O)NC(=O)NC1=O` gave a logP of 2.24. The molecule `COc1ccc2[nH]c(CC(O)c3nc4cc(OC)ccc4[nH]3)nc2c1` (configuration not stated) showed a logP of 0.76. On the same count and under the same terms, the value for `CSc1nccc(O)n1` was 0.22; that for `CCC1OC(=O)C(C)C(OC2CC(C)(O)C(C)O2)C(C)C(OC2OC(C)C(O)C(N(C)C)C2O)C(C)(O)CC(C)C(=O)C(C)C(O)C1(C)O` (configuration not stated) was 1.44. The same measure, in the same setting: for `O=C1C=CC(=O)c2c(O)cccc21` the value was 1.92; for `Cc1cccc(C=C(C(N)=O)C(N)=O)c1`, 0.4. The same measure, in the same setting: the value for `Nc1cccc2nc3ccccc3cc12` was 2.47; that for `CCOC(=Cc1ccccc1)C(=O)NC(C)CC` (configuration not stated) was 3.2; that for `O=S1(=O)Nc2ccccc2N1` was 1.12. Molecule `C=CCc1ccccc1` had a logP of 3.23. The same measure, in the same setting: the value for `CNC(=O)Oc1cccc(Cl)c1Cl` was 2.48; that for `CCCC(=O)Nc1ccc(Cl)c(Cl)c1` was 3.77; that for `O=C1C(N2CCOCC2)=C(N2CC2)C(=O)C(N2CCOCC2)=C1N1CC1` was 0.52. The same measure, in the same setting: for `CCOC(=O)C(=Cc1ccc([N+](=O)[O-])cc1)C(=O)OCC` the value was 3.03; for `FC(F)F`, 0.64; for `S=P(N1CC1)(N1CC1)N1CC1`, 0.53. The same measure, in the same setting: for `CCOC(=O)C(=Cc1cccc(Cl)c1)C(=O)OCC` the value was 3.49.

On to `O=P1(NCCCl)OCCCN1CCCl` (configuration not stated), for which the logP came out at 0.86. The same measure, in the same setting: the value for `C=CC(=O)c1ccccc1` was 1.88; that for `Cc1ccc(OC(=O)CNC(=O)c2ccccc2)cc1` was 2.83; that for `CCCCCCC1OC(=O)c2ccccc21` (configuration not stated) was 3.55. On to `CN(C)c1ncnc2sccc12`, for which the logP is 1.82.

`Cc1ccccc1/C=N/O` returned a logP of 2.53.

With `NC(=O)c1ccc(I)cc1`, the lipophilicity (logP) came out at 1.99. On the same count and under the same terms, the value for `O=C(Nc1ccccc1)c1ccc(C(=O)Nc2ccccc2)cc1` was 3.72.

In the case of `CS(=O)(=O)NN=Cc1ccccc1`, the logP turned out to be 1.2. The same measure, in the same setting: for `CN(N=Nc1ccc(C(N)=O)cc1)C(C)(C)C` the value was 2.61; for `CC(=O)n1ccnc1`, -0.34; for `CCSC(=Cc1ccccc1)C(=O)NC(C)CC` (configuration not stated), 3.4. The same measure, in the same setting: for `CC=CC(=O)Nc1ccc(Cl)c(Cl)c1` the value was 3.63; for `CC(=O)NC(=O)NC(C)=O`, -0.68; for `O=C(/C=C/c1ccccc1)Nc1ccccc1`, 3.61.

For the molecule `CCCCC(=O)Nc1ccccc1`, the logP stood at 2.61. Still for that read-out and setting: the value for `O=C1C[C@@H]2OCC=C3CN4CC[C@]56c7ccccc7N1[C@H]5[C@H]2[C@H]3C[C@H]46` was 1.93; that for `CC(=O)Oc1ccc([N+](=O)[O-])cc1` was 1.5; that for `CC(C)(C)[N+]([O-])=NC#N` was 1.4. The same measure, in the same setting: for `CCCCOc1cccc(C=C(C(C)=O)C(=O)OCC)c1` the value was 3.12. On the same count and under the same terms, the value for `CCOC(=O)C(=Cc1ccc(Cl)cc1)C(=O)OCC` was 3.96. For the molecule `CC(=O)C(F)(F)F`, the logP came out at 0.2.

As for `CCOC(=O)C(=Cc1ccccc1C)C(=O)OCC`, the lipophilicity (logP) worked out at 3.22. Same read-out and setting: the value for `CCOC(=O)C(=Cc1ccc(OC)cc1OC)C(C)=O` was 2.41; that for `Clc1nnnn1-c1ccccc1` was 1.48; that for `CCC1OC(=O)C(C)C(OC2CC(C)(OC)C(O)C(C)O2)C(C)C(OC2OC(C)CC(N(C)C)C2O)C(C)(O)CC(C)C(=O)C(C)C(OC(C)=O)C1C` (configuration not stated) was 3.32. Regarding `CCOC(=O)C(F)(F)C(F)(F)F`, the logP is 2.12. On the same count and under the same terms, for `CNP(=O)(OC)Oc1cc(Cl)c(Cl)cc1Cl` (configuration not stated) the value was 3.06.

As for `CCc1ccc(NC(C)=O)cc1`, the log partition coefficient (logP) was determined as 2.11.

Molecule `CNC(=O)Oc1cc(C)c(Cl)cc1Cl` yielded a lipophilicity (logP) of 3.

With `COc1cc2c(c(OC)c1OC)-c1ccc(OC)c(=O)cc1[C@@H](N)CC2`, the lipophilicity (logP) was 0.67. `C=CC=O` displayed a logP of -0.01. Still for that read-out and setting: for `NCCc1c[nH]c2ccc(O)cc12` the value was 0.21. The same measure, in the same setting: for `CCC(C)C(=O)Nc1ccc(Cl)c(Cl)c1` (configuration not stated) the value was 4.11; for `CCOC(=O)C(=Cc1ccccc1[N+](=O)[O-])C(=O)OCC`, 2.54. Still for that read-out and setting: the value for `N#CSCc1ccccc1` was 1.99; that for `CS(=O)c1ccccc1` (configuration not stated) was 0.55.

As to `CC(=O)OC1CCCCC1NC(=O)N(CCCl)N=O` (configuration not stated), the lipophilicity (logP) worked out at 1.93. `CC(C)Oc1cn[nH]c1` came in with a logP of 1.13. Regarding `CCCCSC(C)(C)C(N)=O`, the log partition coefficient (logP) worked out at 1.81.

For `Cc1ccc(/C=C/[N+](=O)[O-])cc1`, the logP turned out to be 2.66. Still for that read-out and setting: the value for `CC(N)=S` was -0.26. Still for that read-out and setting: for `O=NN(CCF)C(=O)NC1CCC(NC(=O)N(CCF)N=O)CC1` (configuration not stated) the value was 1.34; for `COc1ccccc1C=CC(=O)ON=Cc1ccc(OCCO)c(OC)c1`, 3.56; for `O=C(Nc1ccc(Br)cc1)C(F)(F)F`, 3.34.

Molecule `NC(=O)CI` yielded a lipophilicity (logP) of -0.19. The same measure, in the same setting: for `CCCCl` the value was 2.04; for `CC(=O)Oc1cccc(C(F)(F)F)c1`, 2.63.

The molecule `Nc1cccc([N+](=O)[O-])c1N` had a logP of 1.27.

Take `NS(=O)(=O)c1cccc(OC(=O)CNC(=O)c2ccccc2)c1`: the logP was 0.84. `CNC(=S)NC` yielded a logP of -0.24. In the case of `CCOP(=O)(OCC)OCC`, the log partition coefficient (logP) was 0.8.

As to `Cc1ccc(S(=O)(=O)Oc2ccccc2C(=O)N(C)C)cc1`, the log partition coefficient (logP) is 2.01. Same read-out and setting: for `CC(C)(C)c1cc(O)ccc1[N+](=O)[O-]` the value was 3.65; for `Nc1ccccc1Br`, 2.11.

`c1ccc2c(c1)CNc1ccccc1C2` returned a log partition coefficient (logP) of 2.9. Same read-out and setting: the value for `CN(C)C(=O)Nc1ccc(Br)cc1` was 2.19. `CC(O)CCC(=O)c1ccoc1` (configuration not stated) gave a logP of 0.84. Still for that read-out and setting: the value for `CCc1ccccc1OC(C)=O` was 2.42; that for `O=c1n[n+]([O-])ccn1Cc1ccccc1` was 0.19; that for `CC(=O)C(Cc1ccccc1)C(C)=O` was 1.89. The same measure, in the same setting: the value for `CCOCCCl` was 0.98; that for `CCOC(=O)C(=Cc1cccc(OC)c1)C(C)=O` was 2.34. Same read-out and setting: the value for `O=S1(=O)NC(CCl)=Nc2cc(Cl)ccc21` was 1.68; that for `CC(C)Oc1ccccc1OC(=O)N(C)C` was 2.06.

Still in this data set, the particulars now being: pH 0.5.
For the molecule `CC(O)COc1cccc2oc(C(=O)O)cc(=O)c12` (configuration not stated), the logD (in general, lipophilicity at a set pH, counting ionised and neutral species) is 1.32.

The data set is the same for the next values; noted with them: pH 1.0.
Take `CS(=O)(=O)F`: the pH-dependent lipophilicity (logD) was 0.55. In the case of `O=C(O)c1ccccc1S`, the logD amounted to 2.39.

Take `O=C(O)CSc1ccccc1`: the pH-dependent lipophilicity (logD) is 1.88.

The data set is the same for the next values; noted with them: pH 2.0.
Regarding `O=C(O)c1ccc[nH]1`, the pH-dependent lipophilicity (logD) turned out to be 0.85.

The same data set, now with this note: pH 7.0.
In the case of `Brc1ccc2ncccc2c1`, the logD amounted to 2.83. Same read-out and setting: the value for `CN(C)c1ccc([N+](=O)[O-])cc1` was 2.27. On the same count and under the same terms, for `COc1ccccc1CO` the value was 1.13; for `CCCOC(=O)c1cccnc1`, 1.94.

The data set is the same for the next values; noted with them: pH 7.3.
`Nc1ncnc2nc(-c3ccccc3)[nH]c12` registered a logD of 2.31.

The data set is the same for the next values; noted with them: pH 7.4.
Take `CO/N=C/CCc1ccccc1`: the logD amounted to 2.14.

`O/N=C/CCc1ccccc1` registered a logD of 1.56. Still for that read-out and setting: for `CN(C)/N=N/c1ccccc1C(N)=O` the value was 1.73; for `CCN(CC)c1c(C)n(C)c(=O)n(-c2ccccc2)c1=O`, 2.11; for `CO[C@H]1O[C@H](CNC(=O)N(C)N=O)[C@@H](O)[C@H](O)[C@H]1O`, -1.57. Still for that read-out and setting: the value for `Cc1c(N(C)C)c(=O)n(C)c(=O)n1-c1ccc(Cl)cc1` was 2.32; that for `Nc1nncs1` was -0.57; that for `CC(O)C(C)(C)C(O)C(=O)OCC1=CC[N+]2([O-])CCC(O)C12` (configuration not stated) was -1.52.

The data set is the same for the next values; noted with them: pH 8.0.
`Cn1c(N)cc2ccccc21`: the logD amounted to 1.72.

Still in this data set, the particulars now being: pH 11.0.
With `CN(C)CCCCc1cccnc1`, the logD is 1.49. On the same count and under the same terms, for `c1cncc(CN2CCCC2)c1` the value was 1.1; for `CCNCCc1cccnc1`, 0.54. On the same count and under the same terms, for `CCN(CC)CCc1cccnc1` the value was 1.23.

Still in this data set, the particulars now being: pH 13.0.
For `COc1cc(Cc2cnc(N)nc2N)cc(OC)c1N(C)C`, the logD is 1.51.

The molecule `CC1(C)N=C(N)N=C(N)N1c1ccc(OCC(=O)N2CCOCC2)cc1` returned a logD of -1.18. Still for that read-out and setting: for `CC1(C)N=C(N)N=C(N)N1c1ccc(C(F)(F)F)cc1` the value was 1.22; for `Cc1ccc(N2C(N)=NC(N)=NC2(C)C)cc1`, 0.85. As to `Nc1nc(N)c2ccccc2n1`, the logD was 1. Same read-out and setting: for `Nc1nc(N)c2ncn(COCCO)c2n1` the value was -1.06; for `CCCCOc1cccc(N2C(N)=NC(N)=NC2(C)C)c1`, 2.03.
